Experiments:
Type in all cases: in vivo
Avena fatua = test: Test Example 5: herbicidal effect by foliage application, plastic box (symbol I); conditions: 320 g/ha, 3 weeks after application
Method in brief: (§1)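 Sowing in sterilized diluvial soil, 14 days' greenhouse growth at 25° C. to 30° C., then uniform small-sprayer foliar application of aqueous emulsion dilution; plants scored three weeks afterwards.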

soybean = test: Test Example 5: effect on crop by foliage application, plastic box (symbol d); conditions: 320 g/ha, 3 weeks after application
Method in brief: (§2)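 Diluvial soil, sterilized and boxed (21 × 13 × 7 cm), received spot-sown seed covered by about 1.5 cm soil; plants were then greenhouse-grown at 25–30° C.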

rice plant = test: Test Example 5: effect on crop by foliage application, plastic box (symbol b); conditions: 320 g/ha, 3 weeks after application
Method in brief: as §2

[1] = test system: Echinochloa crus-galli var. crus-galli; test: Test Example 3: herbicidal effect by foliage application, Wagner pot (symbol H); conditions: application herbicide amount 320 g/ha
Method in brief: (§3)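 Rating at 3 weeks post-spray, by defined criteria. Treatment: emulsion diluted with water to a predetermined amount, applied evenly to foliage of 14-day-old plants raised in alluvial soil flooded 0.1–0.5 cm deep at 25–30 °C, rice co-sown.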

Digitaria ciliaris = test: Test Example 5: herbicidal effect by foliage application, plastic box (symbol F); conditions: 320 g/ha, 3 weeks after application
Method in brief: as §1

transplanted rice plant = test: Test Example 1: effect on crop, application before weed generation in submerged conditions (symbol a); conditions: application herbicide amount 320 g/ha
Method in brief: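 Alluvial soil pots flooded to 4 cm water, sown with Echinochloa oryzacola, Scirpus juncoides and Monochoria vaginalis, then transplanted with 2.5 leaf stage rice seedlings; pre-emergence application. Greenhouse 25° C. to 30° C.; scored 0–5 by herbicidal ratio 3 weeks after application.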

Galium spurium = test: Test Example 5: herbicidal effect by foliage application, plastic box (symbol Q); conditions: 320 g/ha, 3 weeks after application
Method in brief: as §1

Apera spica-venti = test: Test Example 5: herbicidal effect by foliage application, plastic box (symbol L); conditions: 320 g/ha, 3 weeks after application
Method in brief: as §1

[2] = test system: Echinochloa oryzacola Vasing.; test: Test Example 1: herbicidal activity, application before weed generation in submerged conditions (symbol A); conditions: application herbicide amount 320 g/ha
Method in brief: (§4)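 Flooded alluvial soil (4 cm water) was mixed-sown with the three weed species, and 2.5-leaf rice seedlings were transplanted. On sowing day, a water-diluted emulsion at a predetermined rate was applied to the water surface. After 3 weeks in a 25–30 °C greenhouse, effect was scored 0–5.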

Scirpus juncoides [3] = test: Test Example 2: herbicidal activity, application during weed generation in submerged conditions (symbol B); conditions: Table 23; application herbicide amount 320 g/ha; grade 0-5 by criteria of Test Example 1
Method in brief: (§5)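 Flooded-soil post-emergence test: emulsion of compound, water-diluted to target rate, applied to paddy water surface at 1–2 leaf stage of mixed-sown weeds (alluvial soil, 4 cm water, 25–30° C. greenhouse); visual rating 3 weeks after application.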

[4] = test system: directly sowed rice plant; test: Test Example 3: effect on crop by foliage application, Wagner pot (symbol b); conditions: application herbicide amount 320 g/ha
Method in brief: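 Steps: fill a 1/10000-are Wagner pot with alluvial soil; add water and mix to submerge at 0.1–0.5 cm depth; sow rice plus Echinochloa crus-galli var. crus-galli, Leptochloa chinensis and Cyperus difformis; grow in a 25–30 °C greenhouse.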

Monochoria vaginalis [5] = test: Test Example 2: herbicidal activity, application during weed generation in submerged conditions (symbol C); conditions: Table 23; application herbicide amount 320 g/ha; grade 0-5 by criteria of Test Example 1
Method in brief: as §5

corn = test: Test Example 5: effect on crop by foliage application, plastic box (symbol c); conditions: 320 g/ha, 3 weeks after application
Method in brief: as §2

Alopecurus myosuroides = test: Test Example 5: herbicidal effect by foliage application, plastic box (symbol J); conditions: 320 g/ha, 3 weeks after application
Method in brief: as §1

Monochoria vaginalis [6] = test: Test Example 1: herbicidal activity, application before weed generation in submerged conditions (symbol C); conditions: application herbicide amount 320 g/ha
Method in brief: as §4

wheat = test: Test Example 5: effect on crop by foliage application, plastic box (symbol e); conditions: 320 g/ha, 3 weeks after application
Method in brief: as §2

beet = test: Test Example 5: effect on crop by foliage application, plastic box (symbol f); conditions: 320 g/ha, 3 weeks after application
Method in brief: as §2

Stellaria media = test: Test Example 5: herbicidal effect by foliage application, plastic box (symbol P); conditions: 320 g/ha, 3 weeks after application
Method in brief: as §1

Veronica persica = test: Test Example 5: herbicidal effect by foliage application, plastic box (symbol R); conditions: 320 g/ha, 3 weeks after application
Method in brief: as §1

Cyperus difformis = test: Test Example 3: herbicidal effect by foliage application, Wagner pot (symbol E); conditions: application herbicide amount 320 g/ha
Method in brief: as §3

Abutilon theophrasti = test: Test Example 5: herbicidal effect by foliage application, plastic box (symbol M); conditions: 320 g/ha, 3 weeks after application
Method in brief: as §1

Amaranthus retroflexus = test: Test Example 5: herbicidal effect by foliage application, plastic box (symbol N); conditions: 320 g/ha, 3 weeks after application
Method in brief: as §1

Scirpus juncoides [7] = test: Test Example 1: herbicidal activity, application before weed generation in submerged conditions (symbol B); conditions: application herbicide amount 320 g/ha
Method in brief: as §4

Lolium multiflorum Lam. = test: Test Example 5: herbicidal effect by foliage application, plastic box (symbol K); conditions: 320 g/ha, 3 weeks after application
Method in brief: as §1

[8] = test system: Echinochloa oryzacola Vasing.; test: Test Example 2: herbicidal activity, application during weed generation in submerged conditions (symbol A); conditions: Table 23; application herbicide amount 320 g/ha; grade 0-5 by criteria of Test Example 1
Method in brief: as §5

[9] = test system: Echinochloa crus-galli var. crus-galli; test: Test Example 5: herbicidal effect by foliage application, plastic box (symbol H); conditions: 320 g/ha, 3 weeks after application
Method in brief: as §1

Chenopodium album = test: Test Example 5: herbicidal effect by foliage application, plastic box (symbol O); conditions: 320 g/ha, 3 weeks after application
Method in brief: as §1

rapeseed = test: Test Example 5: effect on crop by foliage application, plastic box (symbol g); conditions: 320 g/ha, 3 weeks after application
Method in brief: as §2

Leptochloa chinensis = test: Test Example 3: herbicidal effect by foliage application, Wagner pot (symbol D); conditions: application herbicide amount 320 g/ha
Method in brief: as §3

Setaria viridis = test: Test Example 5: herbicidal effect by foliage application, plastic box (symbol G); conditions: 320 g/ha, 3 weeks after application
Method in brief: as §1

Q: Which results are given for `CON=C(C)CC1CC(OC(=O)N2CCOCC2)=C(c2c(C)cc(-c3ccc(Cl)cc3Cl)cc2C)C1=O` (centres unmarked) [6-090]?
A: I: Avena fatua, herbicidal effect (criteria of Test Example 1) (Avena fatua): 4 (Herbicidal ratio of 70% or higher and lower than 90%); d: soybean, effect on crop (criteria of Test Example 1) (soybean): 0 (Herbicidal ratio of 5% or lower (almost no effect)); b: directly sowed rice plant, effect on crop (criteria of Test Example 1) (rice plant): 1 (Herbicidal ratio of 5% or higher and lower than 20%); herbicidal effect on H (Echinochloa crus-galli var. crus-galli), grade 0-5 [1]: 0 (Herbicidal ratio of 5% or lower (almost no effect)); F: Digitaria ciliaris, herbicidal effect (criteria of Test Example 1) (Digitaria ciliaris): 5 (Herbicidal ratio of 90% or more (almost completely withered)); Effect grade on crop, a: transplanted rice plant (transplanted rice plant): 0 (Herbicidal ratio of 5% or lower (almost no effect)); Q: Galium spurium, herbicidal effect (criteria of Test Example 1) (Galium spurium): 0 (Herbicidal ratio of 5% or lower (almost no effect)); L: Apera spica-venti, herbicidal effect (criteria of Test Example 1) (Apera spica-venti): 2 (Herbicidal ratio of 20% or higher and lower than 40%); Herbicidal effect grade, A: Echinochloa oryzacola Vasing. [2]: 5 (Herbicidal ratio of 90% or more (almost completely withered)); Herbicidal effect grade, B: Scirpus juncoides (Scirpus juncoides [3]): 0 (Herbicidal ratio of 5% or lower (almost no effect)); effect on crop b (directly sowed rice plant), grade 0-5 [4]: 0 (Herbicidal ratio of 5% or lower (almost no effect)); Herbicidal effect grade, C: Monochoria vaginalis (Monochoria vaginalis [5]): 0 (Herbicidal ratio of 5% or lower (almost no effect)); c: corn, effect on crop (criteria of Test Example 1) (corn): 2 (Herbicidal ratio of 20% or higher and lower than 40%); J: Alopecurus myosuroides, herbicidal effect (criteria of Test Example 1) (Alopecurus myosuroides): 3 (Herbicidal ratio of 40% or higher and lower than 70%); Herbicidal effect grade, C: Monochoria vaginalis (Monochoria vaginalis [6]): 0 (Herbicidal ratio of 5% or lower (almost no effect)); e: wheat, effect on crop (criteria of Test Example 1) (wheat): 0 (Herbicidal ratio of 5% or lower (almost no effect)); f: beet, effect on crop (criteria of Test Example 1) (beet): 0 (Herbicidal ratio of 5% or lower (almost no effect)); P: Stellaria media, herbicidal effect (criteria of Test Example 1) (Stellaria media): 0 (Herbicidal ratio of 5% or lower (almost no effect)); R: Veronica persica, herbicidal effect (criteria of Test Example 1) (Veronica persica): 0 (Herbicidal ratio of 5% or lower (almost no effect)); herbicidal effect on E, grade 0-5 (Cyperus difformis): 0 (Herbicidal ratio of 5% or lower (almost no effect)); M: Abutilon theophrasti, herbicidal effect (criteria of Test Example 1) (Abutilon theophrasti): 0 (Herbicidal ratio of 5% or lower (almost no effect)); N: Amaranthus retroflexus, herbicidal effect (criteria of Test Example 1) (Amaranthus retroflexus): 0 (Herbicidal ratio of 5% or lower (almost no effect)); Herbicidal effect grade, B: Scirpus juncoides (Scirpus juncoides [7]): 0 (Herbicidal ratio of 5% or lower (almost no effect)); K: Lolium multiflorum Lam., herbicidal effect (criteria of Test Example 1) (Lolium multiflorum Lam.): 4 (Herbicidal ratio of 70% or higher and lower than 90%); Herbicidal effect grade, A: Echinochloa oryzacola Vasing. [8]: 3 (Herbicidal ratio of 40% or higher and lower than 70%); H: Echinochloa crus-galli var. crus-galli, herbicidal effect (criteria of Test Example 1) [9]: 4 (Herbicidal ratio of 70% or higher and lower than 90%); O: Chenopodium album, herbicidal effect (criteria of Test Example 1) (Chenopodium album): 0 (Herbicidal ratio of 5% or lower (almost no effect)); g: rapeseed, effect on crop (criteria of Test Example 1) (rapeseed): 4 (Herbicidal ratio of 70% or higher and lower than 90%); herbicidal effect on D (Leptochloa chinensis), grade 0-5 (Leptochloa chinensis): 5 (Herbicidal ratio of 90% or more (almost completely withered)); G: Setaria viridis, herbicidal effect (criteria of Test Example 1) (Setaria viridis): 5 (Herbicidal ratio of 90% or more (almost completely withered))

Q: For `COc1cc(Br)cc(C)c1C1=C(O)CC(C(C)C(C)=O)C1=O` (centres unmarked) [7-031], which “I: Avena fatua, herbicidal effect grade” value (Avena fatua) is on record?
A: 3 (Herbicidal ratio of 40% or higher and lower than 70%)

Q: And the “d: soybean, effect on crop grade” value (soybean)?
A: 0 (Herbicidal ratio of 5% or lower (almost no effect))

Q: And the “b: directly sowed rice plant, effect on crop grade” value (rice plant)?
A: 4 (Herbicidal ratio of 70% or higher and lower than 90%)

Q: And the “H (Echinochloa crus-galli var. crus-galli) herbicidal effect grade” value ([1]; Table 24)?
A: 4 (Herbicidal ratio of 70% or higher and lower than 90%)

Q: What about the “F: Digitaria ciliaris, herbicidal effect grade” value (Digitaria ciliaris) of the same compound?
A: 4 (Herbicidal ratio of 70% or higher and lower than 90%)

Q: What about the “Q: Galium spurium, herbicidal effect grade” value (Galium spurium) of the same compound?
A: 0 (Herbicidal ratio of 5% or lower (almost no effect))

Q: What about the “L: Apera spica-venti, herbicidal effect grade” value (Apera spica-venti) of the same compound?
A: 5 (Herbicidal ratio of 90% or more (almost completely withered))

Q: And the “Herbicidal effect grade, B: Scirpus juncoides” value (Scirpus juncoides [3])?
A: 1 (Herbicidal ratio of 5% or higher and lower than 20%)

Q: What about the “b (directly sowed rice plant) effect on crop grade” value ([4]; Table 24) of the same compound?
A: 5 (Herbicidal ratio of 90% or more (almost completely withered))

Q: And the “Herbicidal effect grade, C: Monochoria vaginalis” value (Monochoria vaginalis [5])?
A: 2 (Herbicidal ratio of 20% or higher and lower than 40%)

Q: And the “c: corn, effect on crop grade” value (corn)?
A: 1 (Herbicidal ratio of 5% or higher and lower than 20%)

Q: And the “J: Alopecurus myosuroides, herbicidal effect grade” value (Alopecurus myosuroides)?
A: 3 (Herbicidal ratio of 40% or higher and lower than 70%)

Q: And the “e: wheat, effect on crop grade” value (wheat)?
A: 0 (Herbicidal ratio of 5% or lower (almost no effect))

Q: And the “f: beet, effect on crop grade” value (beet)?
A: 0 (Herbicidal ratio of 5% or lower (almost no effect))

Q: What about the “P: Stellaria media, herbicidal effect grade” value (Stellaria media) of the same compound?
A: 0 (Herbicidal ratio of 5% or lower (almost no effect))

Q: What about the “R: Veronica persica, herbicidal effect grade” value (Veronica persica) of the same compound?
A: 0 (Herbicidal ratio of 5% or lower (almost no effect))

Q: What about the “E herbicidal effect grade” value (Cyperus difformis; Table 24) of the same compound?
A: 3 (Herbicidal ratio of 40% or higher and lower than 70%)

Q: What about the “M: Abutilon theophrasti, herbicidal effect grade” value (Abutilon theophrasti) of the same compound?
A: 0 (Herbicidal ratio of 5% or lower (almost no effect))

Q: And the “N: Amaranthus retroflexus, herbicidal effect grade” value (Amaranthus retroflexus)?
A: 0 (Herbicidal ratio of 5% or lower (almost no effect))

Q: And the “K: Lolium multiflorum Lam., herbicidal effect grade” value (Lolium multiflorum Lam.)?
A: 5 (Herbicidal ratio of 90% or more (almost completely withered))

Q: And the “Herbicidal effect grade, A: Echinochloa oryzacola Vasing.” value [8]?
A: 0 (Herbicidal ratio of 5% or lower (almost no effect))

Q: And the “H: Echinochloa crus-galli var. crus-galli, herbicidal effect grade” value [9]?
A: 5 (Herbicidal ratio of 90% or more (almost completely withered))

Q: What about the “O: Chenopodium album, herbicidal effect grade” value (Chenopodium album) of the same compound?
A: 0 (Herbicidal ratio of 5% or lower (almost no effect))

Q: And the “g: rapeseed, effect on crop grade” value (rapeseed)?
A: 0 (Herbicidal ratio of 5% or lower (almost no effect))

Q: And the “D (Leptochloa chinensis) herbicidal effect grade” value (Leptochloa chinensis; Table 24)?
A: 5 (Herbicidal ratio of 90% or more (almost completely withered))

Q: What about the “G: Setaria viridis, herbicidal effect grade” value (Setaria viridis) of the same compound?
A: 5 (Herbicidal ratio of 90% or more (almost completely withered))

Source: US11000033B2, “Ketone or oxime compound, and herbicide” (NISSAN CHEMICAL CORPORATION, priority 2014, dated 2021)
